From patent US20220330549A1, “USE OF N-BENZYLBENZAMIDE-BASED COMPOUND AS HERBICIDE” (Northwest A&F University, priority 2020, published 2022)

What was measured:
Format in all cases: in vivo
[1] = system: Amaranthus retroflexus; experiment: Herbicidal activity test for indoor pre-emergence soil treatment; parameters: key: 1-9 levels; higher = more weed remaining vs blank control; details: 150 g a.i./ha, visual inspection 21 days after treatment
Method in brief: (§1)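 Pre-emergence soil spray per NY/T 1155.3-2006: weed seeds sown in moistened neutral sandy loam (organic content ≤2%), covered with 0.5–2.0 cm soil, then sprayed 24 h later with a water-diluted 10% emulsifiable concentrate at 150 g(a.i.)/ha. Visual rating after 21 days on a 1–9 scale.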

[2] = system: Digitaria sanguinalis; experiment: as above; parameters: key: 1-9 levels; higher = more weed remaining vs blank control; details: 150 g a.i./ha, visual inspection 21 days after treatment
Method in brief: as §1

[3] = system: Humulus scandens; experiment: as above; details: 150 g a.i./ha, visual inspection 21 days after treatment
Method in brief: as §1

[4] = system: Barnyard grass; experiment: Herbicidal activity test for indoor post-emergence spraying on stems and leaves; parameters: key: grade level by weed remaining vs blank control, e.g. 5 = 10.1-15%; details: 150 g a.i./ha, visual inspection 21 days after treatment
Method in brief: (§2)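 Run per NY/T 1155.4-2006: weeds sown, grown in greenhouse, then sprayed post-emergence on stems and leaves. Effect scored visually 21 days after treatment on a graded level scale relative to weed in the blank control area.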

[5] = system: Amaranthus retroflexus; experiment: as above; parameters: key: grade level by weed remaining vs blank control, e.g. 5 = 10.1-15%; details: 150 g a.i./ha, visual inspection 21 days after treatment
Method in brief: as §2

[6] = system: Piemarker; experiment: as above; parameters: key: grade level by weed remaining vs blank control, e.g. 5 = 10.1-15%; details: 150 g a.i./ha, visual inspection 21 days after treatment
Method in brief: as §2

[7] = system: Humulus scandens; experiment: as above; parameters: key: grade level by weed remaining vs blank control, e.g. 5 = 10.1-15%; details: 150 g a.i./ha, visual inspection 21 days after treatment
Method in brief: as §2

[8] = system: green bristlegrass; experiment: as above; parameters: key: grade level by weed remaining vs blank control, e.g. 5 = 10.1-15%; details: 150 g a.i./ha, visual inspection 21 days after treatment
Method in brief: as §2

[9] = system: Digitaria sanguinalis; experiment: as above; parameters: key: grade level by weed remaining vs blank control, e.g. 5 = 10.1-15%; details: 150 g a.i./ha, visual inspection 21 days after treatment
Method in brief: as §2

[10] = system: Barnyard grass; experiment: Field test for weed control in a corn field; details: for Post-emergence weed control effect, Barnyard grass: 150 g a.i./ha, 30 days after treatment
Method in brief: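 Corn-field efficacy trial following GB/T 17980.42-2000. Test compounds were formulated as 10% emulsifiable concentrates, diluted in water and sprayed post-emergence at 150 g(a.i.)/ha when corn had 2 to 5 leaves. Each treatment was replicated 4 times on 20 m^2 plots. Barnyard grass control was rated on a 1-9 damage scale.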

[11] = system: Amaranthus retroflexus; experiment: Field test for weed control in a corn field; details: for Post-emergence weed control effect, Amaranthus retroflexus: 150 g a.i./ha, 30 days after treatment
Method in brief: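 Field efficacy trial in a corn field following GB/T 17980.42-2000. Test compounds were formulated as 10% emulsifiable concentrates, diluted in water and sprayed post-emergence when corn had 2 to 5 leaves. Each treatment covered 20 m^2 with 4 replicates. A 25% mesotrione oil dispersion served as control. Damage to Amaranthus retroflexus was rated on a 1-9 scale against untreated blank plots.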

[12] = system: goosegrass; experiment: Field test for weed control in a corn field; details: for Post-emergence weed control effect, Goose grass: 150 g a.i./ha, after treatment
Method in brief: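 Weed control efficacy against goosegrass was tested in a corn field following GB/T 17980.42-2000. Compounds formulated as 10% emulsifiable concentrates were diluted in water and sprayed post-emergence at 150 g(a.i.)/ha when corn had 2 to 5 leaves, with 4 replicates of 20 m^2 plots. Herbicidal activity was rated on a 1-9 scale by damage symptoms and severity.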

[13] = system: Convolvulus arvensis; experiment: Field test for weed control in a corn field; details: for Post-emergence weed control effect, Convolvulus arvensis: 150 g a.i./ha, after treatment
Method in brief: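 Field trial of weed control against Convolvulus arvensis in corn, run following GB/T 17980.42-2000. Test agents were formulated as 10% emulsifiable concentrates and sprayed in water at 150 g(a.i.)/ha when corn plants had 2 to 5 leaves. Each treatment was replicated 4 times on 20 m^2 plots, and 25% mesotrione oil dispersion served as the control agent.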

[14] = system: Acalypha australis; experiment: Field test for weed control in a corn field; details: for Post-emergence weed control effect, Acalypha australis: 150 g a.i./ha, after treatment
Method in brief: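 Post-emergence field trial in a corn field following GB/T 17980.42-2000. Test compounds were formulated as 10% emulsifiable concentrates, diluted in water, and sprayed at 150 g(a.i.)/ha when corn had 2 to 5 leaves, with 4 replicates on 20 m^2 plots. Mesotrione 25% oil dispersion served as the control agent. Weed control was scored on a 1-9 scale.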

[15] = system: Chenopodium album; experiment: Field test for weed control in a corn field; details: for Post-emergence weed control effect, Chenopodium album: 150 g a.i./ha, after treatment
Method in brief: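 A corn-field efficacy trial following GB/T 17980.42-2000 tested post-emergence control of Chenopodium album. Test compounds formulated as 10% emulsifiable concentrates were diluted in water and sprayed at 150 g(a.i.)/ha when the corn had 2 leaves to 5 leaves, on 20 m^2 plots with 4 replicates. Herbicidal activity was rated on a 1-9 scale by damage symptoms and severity.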

[16] = system: green bristlegrass; experiment: Field test for weed control in a corn field; details: for Post-emergence weed control effect, Green bristlegrass: 150 g a.i./ha, after treatment
Method in brief: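 Post-emergence weed control was tested in a corn field following GB/T 17980.42-2000. When the corn had 2 leaves to 5 leaves after sowing, 10% emulsifiable concentrates diluted in water were sprayed at 150 g(a.i.)/ha on 20 m^2 plots, four replicates per treatment. Effects on green bristlegrass were scored on a 1-9 damage scale relative to the blank control area.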

[17] = system: Portulaca oleracea; experiment: Field test for weed control in a corn field; details: for Post-emergence weed control effect, Portulaca oleracea: 150 g a.i./ha, after treatment
Method in brief: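 Field efficacy trial in corn following GB/T 17980.42-2000. Test compounds were prepared as 10% emulsifiable concentrates, diluted in water, and sprayed at 150 g(a.i.)/ha when corn had 2 to 5 leaves after sowing. Plots were 20 m^2 with 4 replicates per treatment. Herbicidal activity was scored on a 1-9 scale from weed damage symptoms and severity.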

[18] = system: nutgrass flatsedge; experiment: Field test for weed control in a corn field; details: for Post-emergence weed control effect, Nutgrass flatsedge: 150 g a.i./ha, after treatment
Method in brief: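 A corn field efficacy trial following GB/T 17980.42-2000 assessed post-emergence control of nutgrass flatsedge. Test compounds were formulated as 10% emulsifiable concentrates, diluted in water, and sprayed at 150 g(a.i.)/ha when the corn had 2 to 5 leaves. Each treatment had 4 replicates on 20 m^2 plots. Herbicidal activity was graded on a 1-9 scale by damage symptoms and severity.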

[19] = system: Solanum nigrum; experiment: Field test for weed control in a corn field; details: for Post-emergence weed control effect, Solanum nigrum: 150 g a.i./ha, 30 days after treatment
Method in brief: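 Post-emergence weed control was tested in a corn field following GB/T 17980.42-2000. Compounds were made into 10% emulsifiable concentrates, diluted in water and sprayed at 150 g(a.i.)/ha when corn had 2 to 5 leaves after sowing, in 20 m^2 plots with 4 replicates. Effects on Solanum nigrum were graded on a 1-9 scale relative to the blank control area.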

[20] = system: Digitaria sanguinalis; experiment: Field test for weed control in a corn field; details: for Post-emergence weed control effect, Digitaria sanguinalis: 150 g a.i./ha, after treatment
Method in brief: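 Field trial in a corn field following GB/T 17980.42-2000. Test compounds were formulated as 10% emulsifiable concentrates, diluted in water and sprayed post-emergence at 150 g(a.i.)/ha when corn had 2 to 5 leaves, with 4 replicates on 20 m^2 plots. Control of Digitaria sanguinalis was scored on a 1-9 scale based on weed damage relative to the untreated blank area.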

[21] = system: Barnyard grass; experiment: Herbicidal activity test for indoor pre-emergence soil treatment; parameters: key: level 1-9; higher = more weed remaining vs blank control; details: 150 g a.i./ha, visual inspection 21 days after treatment
Method in brief: as §1

[22] = system: Piemarker; experiment: as above; parameters: key: level 1-9; higher = more weed remaining vs blank control; details: 150 g a.i./ha, visual inspection 21 days after treatment
Method in brief: as §1

[23] = system: green bristlegrass; experiment: as above; parameters: key: level 1-9; higher = more weed remaining vs blank control; details: 150 g a.i./ha, visual inspection 21 days after treatment
Method in brief: as §1

[24] = system: Cyperaceae; experiment: Post-emergence herbicidal activity test in a paddy field; parameters: key: level scale; higher level = more weed left vs blank control; details: 150 g a.i./ha (penoxsulam control 250 g(a.i.)/h)
Method in brief: (§3)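 Efficacy was visually estimated 15 and 30 days after spraying, grading weed coverage relative to an untreated neighbouring plot (level 2 = 0 to 2.5%, level 9 = 67.6 to 100%). Treatments were 150 g(a.i.)/ha from 10% emulsifiable concentrates applied at the 4-5 leaf rice stage, four repeats of 50 m^2 each.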

[25] = system: Broadleaf weed; experiment: as above; parameters: key: level scale; higher level = more weed left vs blank control; details: 150 g a.i./ha (penoxsulam control 250 g(a.i.)/h)
Method in brief: as §3

[26] = system: Gramineae; experiment: as above; parameters: key: level scale; higher level = more weed left vs blank control; details: 150 g a.i./ha (penoxsulam control 250 g(a.i.)/h)
Method in brief: as §3

[27] = 150 g(a.i.)/ha, 21 days after treatments

Structure (SMILES)	Herbicidal Activity Amaranthus retroflexus [1]	Herbicidal Activity Digitaria sanguinalis [2]	Herbicidal Activity Humulus scandens [3]	Herbicidal Activity Barnyard grass [4]	Herbicidal Activity Amaranthus retroflexus [5]	Herbicidal Activity Piemarker [6]	Herbicidal Activity Humulus scandens [7]	Herbicidal Activity Green bristlegrass [8]	Herbicidal Activity Digitaria sanguinalis [9]	Post-emergence weed control effect, Barnyard grass [10]	Post-emergence weed control effect, Amaranthus retroflexus [11]	Post-emergence weed control effect, Goose grass [12]	Post-emergence weed control effect, Convolvulus arvensis [13]	Post-emergence weed control effect, Acalypha australis [14]	Post-emergence weed control effect, Chenopodium album [15]	Post-emergence weed control effect, Green bristlegrass [16]	Post-emergence weed control effect, Portulaca oleracea [17]	Post-emergence weed control effect, Nutgrass flatsedge [18]	Post-emergence weed control effect, Solanum nigrum [19]	Post-emergence weed control effect, Digitaria sanguinalis [20]	other results
Cc1cccc(C(=O)NCc2ccc(F)c(Cl)c2)n1 [Compound B30]	1	1	2 (equivalent to 0 to 2.5% of the weed in the blank control area)	1	1	1	1	1	1	1	1	1	1	1	1	1	1	1	1	1	controlling effect on barnyard grass [10, 27]: 1; controlling effect on Amaranthus retroflexus [11, 27]: 1; controlling effect on goosegrass [12, 27]: 1; controlling effect on Convolvulus arvensis [13, 27]: 1; controlling effect on Acalypha australis [14, 27]: 1; controlling effect on Chenopodium album [15, 27]: 1; controlling effect on green bristlegrass [16, 27]: 1; controlling effect on Portulaca oleracea [17, 27]: 1; controlling effect on nutgrass flatsedge [18, 27]: 1; controlling effect on Solanum nigrum [19, 27]: 1; controlling effect on Digitaria sanguinalis [20, 27]: 1; Herbicidal Activity Barnyard grass [21]: 1; Herbicidal Activity Piemarker [22]: 1; Herbicidal Activity Green bristlegrass [23]: 1; Herbicidal activity 15 days after treatment Cyperaceae [24]: 1; Herbicidal activity 30 days after treatment Cyperaceae [24]: 2 (equivalent to 0 to 2.5% of the weed in the blank control area); Herbicidal activity 15 days after treatment Broadleaf weed [25]: 1; Herbicidal activity 30 days after treatment Broadleaf weed [25]: 1; Herbicidal activity 15 days after treatment Gramineae [26]: 1; Herbicidal activity 30 days after treatment Gramineae [26]: 1
COc1ccccc1C(=O)NCc1cccc(C)c1 [Compound A14, 2-methoxy-N-(3-methylbenzyl)benzamide]	2 (equivalent to 0 to 2.5% of the weed in the blank control area)	2 (equivalent to 0 to 2.5% of the weed in the blank control area)	3 (equivalent to 2.6 to 5% of the weed in the blank control area)	2 (equivalent to 0 to 2.5% of the weed in the blank control area)	1	1	1	1	1	1	1	1	1	2 (equivalent to 0 to 2.5% of the weed in the blank control area)	1	1	1	2 (equivalent to 0 to 2.5% of the weed in the blank control area)	2 (equivalent to 0 to 2.5% of the weed in the blank control area)	2 (equivalent to 0 to 2.5% of the weed in the blank control area)	Herbicidal Activity Barnyard grass [21]: 2 (equivalent to 0 to 2.5% of the weed in the blank control area); Herbicidal Activity Piemarker [22]: 1; Herbicidal Activity Green bristlegrass [23]: 1; Herbicidal activity 15 days after treatment Cyperaceae [24]: 1; Herbicidal activity 30 days after treatment Cyperaceae [24]: 2 (equivalent to 0 to 2.5% of the weed in the blank control area); Herbicidal activity 15 days after treatment Broadleaf weed [25]: 1; Herbicidal activity 30 days after treatment Broadleaf weed [25]: 2 (equivalent to 0 to 2.5% of the weed in the blank control area); Herbicidal activity 15 days after treatment Gramineae [26]: 1; Herbicidal activity 30 days after treatment Gramineae [26]: 2 (equivalent to 0 to 2.5% of the weed in the blank control area)
